Results as given in article PMC5442318, “Hundreds of dual-stage antimalarial molecules discovered by a functional gametocyte screen” (Nature Communications, 2017).
Where two headings read alike, the source gives them in different places.

Key:
[1] = system: P. falciparum stages IV–V gametocytes; assay: Gametocytocidal ATP-depletion assay (gametocyte ATP bioluminescence); assay type: cell-based, Plasmodium falciparum
Outline: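 Purified stage IV–V gametocytes (12,500/well) incubated with compound for 48 h at 37 °C under 3% O2/5% CO2. ATP measured by BacTiter-Glo luminescence as a viability surrogate; hits tested at 2 μM single concentration.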

[2] = system: P. falciparum stage V female gametocytes; assay: P. falciparum female gametocyte activation assay (Pf FGAA), 24 h or 48 h preincubation, Pfs25 expression readout; assay type: cell-based, Plasmodium falciparum NF54; conditions: mean, read-out: Gametocytes mean Pf FGAA IC50
Outline: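 Purified stage V gametocytes from P. falciparum NF54 gametocyte cultures were exposed to compounds for 24 h or 48 h at 37 °C under 3% O2/5% CO2, then activated by temperature drop plus xanthurenic acid. Activated females were stained with Cy3-anti-Pfs25 (0.5 μg ml^−1) for 24 h at 26 °C and counted by high-content imaging; pIC50 by nonlinear regression.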

HepG2 cells = assay: HepG2 cytotoxicity assay; assay type: cell-based; conditions: mean
Outline: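 After compound incubation, plates and CellTiter-Glo reagent were brought to room temperature for 30 min. The reagent was then added, and luminescence was read after a 10 min room-temperature stabilization.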

[3] = system: P. falciparum asexual blood stages; conditions: read-out: Pf Asexual blood stages XC50, cited from earlier work
[4] = TCAMS data, ref 1 (Gamo et al., 2010)
[5] = P. falciparum female gametocyte activation assay
[6] = TCAMS asexual blood stage data, ref 1 (Gamo, F. J. et al., Nature 465, 305-310, 2010)

SMILES | Gametocytes mean ATP inhibition at 2µM (%) [1] [%] | IC50 [2] [µM] | HepG2 cells mean TOX50 (HepG2 cells) [µM] | IC50 [3, 4] [µM] | Gametocytes mean ATP inhibition at 2µM [1] [%] | IC50 [2, 5] [µM] | HepG2 cells mean TOX50 (HepG2 cells; HepG2 cells) [µM] | IC50 [3, 6] [µM]
CC(NCCc1cccc(Cl)c1)C(O)c1ccc(OCCCCCCOc2ccc(C(O)C(C)NCCc3cccc(Cl)c3)cc2)cc1 (stereo not drawn) [TCMDC-139334] | 41.15 | 1 | 2.63 | 0.4 | – | – | – | –
Cc1cc(N)c2cc(NC(=O)/C=C/c3ccc([N+](=O)[O-])cc3)ccc2n1 [TCMDC-139335] | -7.69 | 2.69 | 5.37 | 0.67 | – | – | – | –
Cc1cc(N)c2cc(NC(=O)c3cc(C(F)(F)F)cc(C(F)(F)F)c3)ccc2n1.Cl [TCMDC-139377] | 0.86 | 0.86 | 2.60 | 0.09 | – | – | – | –
COc1ccc2nc(N=C3NC4(c5ccccc5)NC(=Nc5nc6ccc(OC)cc6[nH]5)NC4(c4ccccc4)N3)[nH]c2c1.O=C(O)C(F)(F)F (stereo not drawn) [TCMDC-139632] | 67.82 | 0.12 | 62.72 | 0.2 | – | – | – | –
CC(Cc1ccc(CNC(=O)c2ccc(CC(C)NCCc3cccc(Cl)c3)cc2)cc1)NCCc1cccc(Cl)c1 (stereo not drawn) [TCMDC-139659] | -0.70 | 0.86 | 2.26 | 0.7 | – | – | – | –
CC(=O)N(Cc1ccc(CC(C)NCCc2cccc(Cl)c2)cc1)Cc1ccc(CC(C)NCCc2cccc(Cl)c2)cc1 (stereo not drawn) [TCMDC-139678] | 14.97 | 0.81 | 2.85 | 0.78 | – | – | – | –
c1cc(Nc2nc(-c3ccc(-c4csc(Nc5ccncc5)n4)cc3)cs2)ccn1 [TCMDC-139725] | 93.92 | 0.03 | 2.26 | 0.12 | – | – | – | –
CC(Cc1ccc(C(=O)Nc2ccc(CC(C)NCCc3cccc(Cl)c3)cc2)cc1)NCCc1ccc(C(F)(F)F)cc1 (stereo not drawn) [TCMDC-139790] | 57.11 | 1.01 | 4.13 | 0.57 | – | – | – | –
CC(Cc1ccc(NS(=O)(=O)c2ccc(CC(C)NCCc3cccc(Cl)c3)cc2)cc1)NCCc1cccc(Cl)c1 (stereo not drawn) [TCMDC-139797] | -2.49 | 1.84 | 4.37 | 0.77 | – | – | – | –
CC(CCCCCC(=O)Nc1ccc(CC(C)NCCc2cccc(Cl)c2)cc1)NCCc1cccc(Cl)c1 (stereo not drawn) [TCMDC-139800] | 20.09 | 1.39 | 2.55 | 0.95 | – | – | – | –
CCOc1ccccc1CCNC(C)Cc1ccc(C(=O)Nc2ccc(CC(C)NCCc3cccc(Cl)c3)cc2)cc1 (stereo not drawn) [TCMDC-139805] | 17.68 | 1.39 | 3.24 | 0.54 | – | – | – | –
CCCCCCCN1CC[C@@H](CCCc2ccnc3ccc(OCCN4CCNCC4)cc23)[C@@H](CC)C1.Cl [TCMDC-139817] | 8.71 | 1.86 | 4.90 | 0.77 | – | – | – | –
CC(Cc1ccc(NC(=O)c2ccc(CNCCCCc3ccccc3)cc2)cc1)NCCc1cccc(Cl)c1.Cl (stereo not drawn) [TCMDC-139866] | 18.31 | 1.12 | 1.97 | 0.33 | – | – | – | –
CC(Cc1ccc(NC(=O)c2ccc(CNCCc3ccccc3)cc2)cc1)NCCc1cccc(Cl)c1.Cl (stereo not drawn) [TCMDC-139867] | 10.73 | 2.07 | 4.17 | 0.35 | – | – | – | –
Cc1oc(-c2ccc(Cl)cc2)cc1C(=O)NCCC1CCN(CCCCCNC(=O)/C=C/c2ccc(Cl)c(Cl)c2)CC1 [TCMDC-140009] | -9.24 | 1.83 | 3.31 | 0.45 | – | – | – | –
CC(Cc1ccc(OCCCCOc2ccccc2)cc1)NCCC1CCCN1C (stereo not drawn) [TCMDC-140017] | 85.16 | 0.2 | 1.12 | 0.04 | – | – | – | –
Nc1ccc2[nH]cc(C3CCN(CC4CCN(C(=O)/C=C/c5ccc(Cl)c(Cl)c5)CC4)CC3)c2n1 [TCMDC-140061] | -11.61 | 1.77 | 5.89 | 0.7 | – | – | – | –
Nc1ccc2[nH]cc(C3CCN(CCC4CCN(C(=O)/C=C/c5ccc(Cl)c(Cl)c5)CC4)CC3)c2n1 [TCMDC-140062] | -11.87 | 1.29 | 8.13 | 0.74 | – | – | – | –

SMILES | Gametocytes mean ATP inhibition at 2µM (%) [1] [%] | IC50 [2] [µM] | HepG2 cells mean TOX50 (HepG2 cells) [µM] | IC50 [3, 4] [µM] | Gametocytes mean ATP inhibition at 2µM [1] [%] | IC50 [2, 5] [µM] | HepG2 cells mean TOX50 (HepG2 cells; HepG2 cells) [µM] | IC50 [3, 6] [µM]
O=C(/C=C/c1ccc(Cl)c(Cl)c1)N1CCC(CN2CCC(c3c[nH]c4ccncc34)CC2)CC1 [TCMDC-140074] | -2.94 | 0.87 | 5.32 | 0.73 | – | – | – | –
CN(CCCCN)Cc1ccc(-c2ccc(Cl)cc2)cc1 [TCMDC-140123] | 17.75 | 1.58 | 3.55 | 0.88 | – | – | – | –
Nc1cc2c(C3CCN(CC4CCN(C(=O)/C=C/c5ccc(Cl)c(Cl)c5)CC4)CC3)c[nH]c2cn1 [TCMDC-140133] | -6.84 | 1.97 | 6.24 | 0.98 | – | – | – | –
COc1ccc(-c2ccccc2)cc1NC(=S)NC1CCC(CN2CCC(c3c[nH]c4ccccc34)CC2)CC1 (stereo not drawn) [TCMDC-140182] | 21.09 | 1.65 | 5.50 | 0.65 | – | – | – | –
CC(C)(CN)c1nc(-c2ccc(Cl)c(O)c2)c(-c2ccncc2)[nH]1.Cl [TCMDC-140369] | -0.49 | 0.94 | 2.16 | 0.76 | – | – | – | –
CN1CCN(CCCN(Cc2cccc(-c3ccc(CNC4CCCC4)cc3)c2)C(=O)/C=C/c2ccccc2)CC1.O=C(O)C(F)(F)F [TCMDC-140544] | 0.64 | 1.36 | 7.70 | 0.75 | – | – | – | –
CN1CCN(CCCN(Cc2cccc(-c3ccc(CNCCc4ccccc4)cc3)c2)C(=O)c2cccs2)CC1.O=C(O)C(F)(F)F [TCMDC-140568] | -8.58 | 1.71 | 5.98 | 0.72 | – | – | – | –
CN1CCN(CCCNCc2cccc(-c3ccc(CNCCc4ccccc4)cc3)c2)CC1 [TCMDC-140643] | 22.49 | 1.91 | 7.92 | 0.78 | – | – | – | –
COc1cc(NCCCNCc2cn(Cc3cc(Br)cc(Br)c3)c3ccccc23)nc2ccccc12 [TCMDC-140677] | 11.13 | 0.86 | 3.94 | 0.19 | – | – | – | –
CN(C)CCCOc1ccc(CN2CCC(c3c[nH]c4ccc(NCC5CCCCC5)cc34)CC2)cc1.O=C(O)C(F)(F)F [TCMDC-140737] | -13.51 | 0.56 | 5.48 | 0.68 | – | – | – | –
CCN(CC)CCN(Cc1ccc(-c2ccc(C(F)(F)F)cc2)cc1)C(=O)Cn1cc(Cc2cnn(C)c2)c(=O)nc1/C=C/c1ccc(F)cc1.O=C(O)C(O)C(O)C(=O)O [TCMDC-140741] | 46.80 | 1.21 | 13.81 | 1.06 | – | – | – | –
CC(C)(C)c1ccc(CNC(=O)/C=C/c2ccc(CNC3CCNCC3)cc2)cc1 [TCMDC-140773] | 8.96 | 1.92 | 9.47 | 1.09 | – | – | – | –
CC(C)(C)c1ccc(CNC(=O)c2cc(CNC3CCNCC3)ccc2O)cc1 [TCMDC-140775] | -11.19 | 2 | 13.96 | 0.71 | – | – | – | –
CC(C)(C)c1ccc(CNC(=O)c2ccc(CNC3CCC(N)CC3)s2)cc1 (stereo not drawn) [TCMDC-140777] | 10.64 | 2.44 | 8.95 | 0.53 | – | – | – | –
CCN(CC)CCN(Cc1ccc(-c2ccc(C(F)(F)F)cc2)cc1)C(=O)Cn1cc(Cc2cnn(C)c2)c(=O)nc1/C=C/c1cccc(F)c1F [TCMDC-140964] | – | – | – | – | 69.60 | 0.87 | 9.69 | 0.96
CC(C)(CNC(=O)[C@H]1CCCN1)c1nc(-c2ccc(Cl)c(O)c2)c(-c2ccncc2)[nH]1.Cl [TCMDC-141060] | – | – | – | – | -7.23 | 1.21 | 32.74 | 1.27
CC1(CCN2CCC(c3c[nH]c4cnccc34)CC2)CCCc2c(Br)cccc2C1=O.Cl (stereo not drawn) [TCMDC-141171] | – | – | – | – | 10.47 | 1.73 | 5.25 | 0.19
CC(C)(CN)c1cc(-c2ccc(Cl)c(O)c2)c(-c2ccncc2)o1.Cl [TCMDC-141334] | – | – | – | – | -5.00 | 0.42 | 9.98 | 1.14
